Results taken from the NIST ThermoML archive (doi:10.1021/je050402s).

Assay: xn = mol fraction of the nth substance listed
Details: 100.5 kPa, Liquid

CCOC(=O)CC(C)=O [ethyl 3-oxobutanoate] + CCO
viscosity [mPa·s], Capillary tube (Ostwald / Ubbelohde) method
Details	288.15 K	298.15 K	308.15 K	318.15 K
x1 = 0.05	1.266	1.042	0.869	0.731
x1 = 0.1	1.204	1.001	0.841	0.713
x1 = 0.15	1.19	0.99	0.832	0.709
x1 = 0.2	1.194	0.994	0.837	0.712
x1 = 0.25	1.206	1.003	0.846	0.721
x1 = 0.3	1.226	1.019	0.86	0.735
x1 = 0.35	1.25	1.038	0.878	0.751
x1 = 0.4	1.28	1.061	0.898	0.768
x1 = 0.45	1.312	1.087	0.921	0.789
x1 = 0.5	1.349	1.117	0.947	0.812
x1 = 0.55	1.39	1.151	0.974	0.836
x1 = 0.6	1.435	1.189	1.004	0.861
x1 = 0.65	1.484	1.227	1.036	0.888
x1 = 0.7	1.536	1.27	1.073	0.917
x1 = 0.75	1.591	1.316	1.112	0.948
x1 = 0.8	1.65	1.366	1.154	0.983
x1 = 0.85	1.709	1.415	1.199	1.018
x1 = 0.9	1.773	1.471	1.247	1.059
x1 = 0.95	1.834	1.524	1.295	1.103
x1 = 1	1.902	1.581	1.344	1.144

mass density [kg/m3]
Details	288.15 K	298.15 K	308.15 K	318.15 K
x1 = 0.05	818.78	809.91	800.94	791.8
x1 = 0.1	841	831.89	822.68	813.32
x1 = 0.15	860.94	851.63	842.22	832.67
x1 = 0.2	878.93	869.45	859.89	850.17
x1 = 0.25	895.25	885.63	875.91	866.05
x1 = 0.3	910.15	900.41	890.57	880.6
x1 = 0.35	923.79	913.94	903.99	893.92
x1 = 0.4	936.31	926.37	916.34	906.18
x1 = 0.45	947.86	937.83	927.73	917.49
x1 = 0.5	958.56	948.47	938.29	927.99
x1 = 0.55	968.53	958.37	948.11	937.75
x1 = 0.6	977.79	967.55	957.24	946.84
x1 = 0.65	986.4	976.13	965.77	955.36
x1 = 0.7	994.51	984.17	973.79	963.33
x1 = 0.75	1002.07	991.71	981.29	970.82
x1 = 0.8	1009.18	998.79	988.36	977.88
x1 = 0.85	1015.85	1005.46	995.02	984.54
x1 = 0.9	1022.16	1011.74	1001.3	990.84
x1 = 0.95	1028.15	1017.72	1007.29	996.82
x1 = 1	1033.92	1023.45	1013	1002.54

CCOC(=O)c1ccccc1O [ethyl 2-hydroxybenzoate] + CCO
Details	mass density, 288.15 K [kg/m3]	mass density, 298.15 K [kg/m3]	mass density, 308.15 K [kg/m3]	mass density, 318.15 K [kg/m3]	viscosity, 288.15 K [mPa·s]	viscosity, 298.15 K [mPa·s]	viscosity, 308.15 K [mPa·s]	viscosity, 318.15 K [mPa·s]
x1 = 0.05	835.47	826.63	817.7	808.61	1.398	1.145	0.953	0.802
x1 = 0.1	871.02	862	852.86	843.56	1.467	1.197	0.998	0.836
x1 = 0.15	901.89	892.7	883.41	873.95	1.533	1.258	1.043	0.877
x1 = 0.2	928.98	919.64	910.21	900.63	1.615	1.322	1.094	0.915
x1 = 0.25	952.87	943.42	933.9	924.22	1.708	1.388	1.147	0.957
x1 = 0.3	974.13	964.62	955.01	945.25	1.8	1.455	1.198	0.999
x1 = 0.35	993.22	983.64	973.96	964.15	1.902	1.526	1.254	1.045
x1 = 0.4	1010.45	1000.81	991.08	981.22	2.001	1.598	1.313	1.093
x1 = 0.45	1026.08	1016.38	1006.61	996.72	2.104	1.677	1.373	1.141
x1 = 0.5	1040.36	1030.63	1020.8	1010.88	2.209	1.757	1.435	1.192
x1 = 0.55	1053.4	1043.63	1033.79	1023.85	2.317	1.838	1.498	1.242
x1 = 0.6	1065.37	1055.57	1045.7	1035.76	2.428	1.921	1.561	1.294
x1 = 0.65	1076.35	1066.53	1056.65	1046.7	2.543	2.006	1.627	1.347
x1 = 0.7	1086.51	1076.67	1066.79	1056.85	2.664	2.096	1.695	1.403
x1 = 0.75	1095.97	1086.12	1076.24	1066.31	2.8	2.187	1.766	1.463
x1 = 0.8	1104.72	1094.88	1085.02	1075.11	2.943	2.288	1.846	1.527
x1 = 0.85	1112.93	1103.09	1093.24	1083.37	3.1	2.398	1.932	1.596
x1 = 0.9	1120.61	1110.81	1101	1091.17	3.268	2.522	2.03	1.678
x1 = 0.95	1127.85	1118.07	1108.31	1098.55	3.503	2.706	2.163	1.781
x1 = 1	1134.72	1125	1115.29	1105.6	3.694	2.831	2.253	1.842
